From EPA's ToxValDB 9.5
Values joined by “and” are separate entries in the source; they are usually repeats but may differ in a detail not shown here. Equal values may be shown once.

Key:
[1] = system: Mus musculus; conditions: chronic, M/F
[2] = system: Rattus norvegicus; conditions: M/F
[3] = system: Rattus norvegicus; conditions: subchronic, duration: 13 weeks
[4] = system: Canidae; conditions: oral, M/F, Dog Other; for LEL / NOEL: chronic, diet
[5] = system: Rattus norvegicus; conditions: repeat dose other; oral
[6] = system: Rattus norvegicus; conditions: oral, M/F
[7] = system: Rattus norvegicus; conditions: oral
[8] = system: Rattus norvegicus; conditions: oral, gavage
[9] = system: Rattus norvegicus; conditions: Hershberger; duration: 10 days; oral; gavage; Sprague-Dawley; active + Negative + Antiandrogenic + anti-androgenic + Delayed PPS and decreased AST wt at 375 / bw decreased 6-7% / increased liver wt in…
[10] = system: Mus musculus; conditions: duration: 10 days, inhalation, CF1
[11] = system: Oryctolagus sp.; conditions: duration: 13 days, inhalation, New Zealand
[12] = system: Rattus norvegicus; conditions: duration: 10 days, inhalation, Sprague-Dawley
[13] = system: Mus musculus; conditions: developmental; duration: 9 days; inhalation; whole body; M/F; CF1; developmental
[14] = inhalation, B6C3F1, suppurative inflammation of the nose
[15] = duration: 1 years, increased serum cholesterol, alkaline phosphatase, and relative liver and kidney weight, and decreased alanine transaminase and adrenal …
[16] = subchronic, mortality and body weight loss
[17] = short-term, duration: 28 days, M, Sprague-Dawley, Clinical Observation: Respiratory rate decrease, Incomplete eyelid opening SalivationSpontaneous locomotion decrease + Body Weight Changes: …
[18] = short-term, duration: 28 days, M, Sprague-Dawley, Clinical Observation: Spontaneous locomotion decrease, Respiratory rate decrease, Salivation + Body Weight Changes: decrease + Food …
[19] = duration: 2 years, reduced body weight gain
[20] = duration: 6 months, liver and thyroid effects
[21] = duration: 20 months, oral, diet, increased absolute liver weight and nonneoplastic lesions
[22] = duration: 2 years, Increased mean blood sugar concentration + slight hypothermia
[23] = chronic, diet, liver cell polymorphism

## ClC1=C(Cl)C(Cl)(Cl)C(Cl)=C1Cl [Hexachlorocyclopentadiene]
[1]; [14]
  LOAEL: 2.23 mg/m3
  NOAEL: 0.56 mg/m3
[2]; chronic, duration: 2 years, inhalation, Fischer 344, respiratory
  LOAEL: 0.112 mg/m3
[2]; chronic, duration: 14 weeks, inhalation, Sprague-Dawley, respiratory
  NOAEL: 2.23 mg/m3
[2]; subchronic, duration: 13 weeks, oral, gavage, Fischer 344, renal
  NOAEL: 19 mg/kg-day
[3]; inhalation, intermittent, Nasal cavity: Squamous metaplasia
  NOAEL: 1.67 mg/m3
[3]; oral, Forestomach: Lesions
  NOAEL: 7.1 mg/kg-day

## CCCN(CCC)c1c([N+](=O)[O-])cc(S(N)(=O)=O)cc1[N+](=O)[O-] [Oryzalin]
[4]; [15]
  LEL: 50 mg/kg-day
  NOEL: 5 mg/kg-day

## CCOC(C)=O [Ethyl acetate]
[5]
  LOAEL: 360 mg/kg-day
  NOAEL: 90 mg/kg-day
[6]; [16]
  LOAEL: 3600 mg/kg-day
  NOEL: 900 mg/kg-day

## Cc1c(N)cccc1N [2,6-Toluenediamine]
[7]; chronic, duration: 2 years, diet, M, Fischer 344, Whole Body Effects
  NOAEL: 25 mg/kg-day
[7]; chronic, duration: 91 days, diet, M, Fischer 344, Whole Body Effects
  NOAEL: 62 mg/kg-day

## ClC(Cl)Br [Bromodichloromethane]
[8]; [17]
  NOAEL: 40 mg/kg-day
  NOEL: < 40 mg/kg-day
[8]; [18]
  NOAEL: 40 mg/kg-day
  NOEL: < 40 mg/kg-day
[8]; subchronic, duration: 13 weeks, M/F, Fischer 344, Deaths + Body Weight Changes: decrease + Histopathology: Liver/centrilobular-Degeneration Liver/bile duct -Hyperplasia Liver-Enlargement, …
  NOEL: 38 mg/kg-day
[1]; oral, gavage, renal cytomegaly
  LOAEL: 25 mg/kg-day

## ClCCCCl [1,3-Dichloropropane]
[7]; subchronic, duration: 90 days, gavage, M/F, Sprague-Dawley, Hepatic, Urinary
  NOAEL: 50 mg/kg-day

## CCC1CO1 (stereo unspecified) [1,2-Epoxybutane]
[1]; duration: 2 years, inhalation, degenerative lesions of the nasal cavity
  LOAEL: 147 mg/m3

## C=CCOC(Cn1ccnc1)c1ccc(Cl)cc1Cl (stereo unspecified) [Imazalil]
[4]; [19]
  LEL: 5 mg/kg-day
  NOEL: 1.25 mg/kg-day

## CNc1cnn(-c2cccc(C(F)(F)F)c2)c(=O)c1Cl [Norflurazon]
[4]; [20]
  LEL: 10.2 mg/kg-day
  NOEL: 3.75 mg/kg-day
[9]
  LOEL: 375 mg/kg-day and 1000 mg/kg-day
  NOEL: 185 mg/kg-day and 300 mg/kg-day

## O=C(O)C(Cl)Cl [Dichloroacetic acid]
[4]; subchronic, lesions in testes, cerebrum, cerebellum, and liver
  LOAEL: 12.5 mg/kg-day

## CCOc1cc(Oc2ccc(C(F)(F)F)cc2Cl)ccc1[N+](=O)[O-] [Oxyfluorfen]
[1]; [21]
  LEL: 3 mg/kg-day
  NOEL: 0.3 mg/kg-day

## Cc1ccc(N=CN(C)C=Nc2ccc(C)cc2C)c(C)c1 [Amitraz]
[4]; [22]
  LEL: 1 mg/kg-day
  NOEL: 0.25 mg/kg-day

## C=CCl [Vinyl chloride]
[10]; developmental
  NOAEL: 1280 mg/m3
[10]; reproduction developmental, F
  NOAEL: 128 mg/m3
[11]; developmental
  NOAEL: 6390 mg/m3
[11]; reproduction developmental, F
  NOAEL: < 1280 mg/m3
[12]; developmental
  NOAEL: 6390 mg/m3
[12]; reproduction developmental, F
  NOAEL: < 1280 mg/m3
[5]
  LOAEL: 1.7 mg/kg-day
  NOAEL: 0.17 mg/kg-day
[6]; [23]
  LOAEL: 1.3 mg/kg-day
  NOAEL: 0.13 mg/kg-day
[13]
  NOAEL: 128 mg/m3
[2]; chronic, duration: 149 weeks, oral, diet, Wistar, hepatic
  NOAEL: 0.17 mg/kg-day
